Target: T1, Mut-p53 (R175H p53) (Homo sapiens, UniProt P04637, R175H)
T1 construct: a hot spot full length mutant p53 Mut-p53 R175H (R175H p53); expressed in transfected cells; host or cells: H1299 (p53-null) cells stably overexpressing R175H p53; cell extract
Assay: Sandwich ELISA for p53 conformation (PAb1620/PAb240 reactivity)
Type: biochemical
Experimental: To measure the conformational effect of the peptides on Mut-p53, a micro-titer plate was coated with either PAb240, PAb1620 or pAb421 (as a positive control and standard for total p53 protein, since the antibody used recognizes both WT and mutant conformations), overnight incubated, washed, blocked, and cell extracts (with or without peptides) were added for an additional 2 hours. After removal of extracts, plates were washed and incubated with the αp53-HRP conjugated Ab for the detection of p53 levels. A TMB (substrate of HRP) assay was performed and optical density was determined at 450 nm. WT p53 served as a positive control for reactivity with PAb1620, and Mut-p53 served as a negative control. The results are presented as the ratio of absorbance between the PAb1620 or PAb240 samples and the control […] sample. MCF7 and H1299-Mut-p53 (ts) A135V (TS) cells were used as positive controls for the WT p53 conformation (1620/240 ratio equals or exceeds 5:1).
96-well plates were coated using 3 different antibodies (1 type of antibody (Ab) in each well): PAb421 recognizes both conformations of p53 and binds to a C-terminus epitope; PAb240 recognizes mutant conformation of p53, binds to epitope within the core domain (amino acids 212-217) (Stephen, C. W. and D. P. Lane, Mutant conformation of p53. Precise epitope mapping using a filamentous phage epitope library. J. Mol. Biol., 1992. 225(3): p. 577-83) which is accessible to the Ab when the protein is partially denatured (for example, when the DBD is mutated); and PAb1620, which recognizes WT conformation of p53, binds to epitope with in the core domain (aa 156, 206-210), formed when folding is in WT conformation (Wang, P. L., F. Salt, and G. Winter, The ‘wild type’ conformation of p53: epitope mapping using hybrid proteins. Oncogene, 2001. 20(18): p. 2318-24).
Wells were incubated overnight (ON) with 100 μl Ab (5 μg/ml) in room temp (RT). The liquid was discarded, and the wells were washed 3 times with Phosphate buffered saline (PBS), 200 μl per each wash. Next, blocking with 200 μl of 5% bovine serum albumin (BSA) diluted in PBS in each well for 1.5 hours at room temperature (RT) was performed. Blocking buffer was discarded, followed by 3 washes in PBS as described above. Samples of mutant and WT p53 proteins (100 μl, 10 μg/ml), together with control peptides pCAP-710 (LPNPPER, SEQ ID NO:328) and pCAP-1220 ([…], SEQ ID NO:368) (5 μg/ml, Sigma Aldrich, or with test peptides 1-153 (5 μg/ml), were incubated for 1.5 hours together, and then added to the wells. Samples were rotated and incubated for 1 hour at RT. Samples were discarded, following 4 washes as described above, using Trisphosphate buffered saline (TPBS). Next, horseradish peroxidase (HRP) conjugated streptavidin p53 antibody (10 μg/ml HAF1355 (R&D)) was added to the wells and incubated at RT for 1 hour. After the plate was washed 3 times in TPBS, TMB substrate solution (50 μl each well, Thermo, (Cat. No. ES001-1L-K)) was added and incubated at 37° c. for 20 min. The reaction was stopped with 2M sulfuric acid (50 μl). The absorbance was measured at 450 nm with a spectrophotometer. Protein concentration was determined by dividing the absorbencies of each sample to the absorbance of Ab 421 samples.
The first screening strategy was based on ELISA. A version of sandwich ELISA was used to examine the effect of the lead test peptides on p53 conformation. To measure the conformational effect of the peptides on Mut-p53, a micro-titer plate was coated with PAb240, PAb1620 or pAb421 (as a positive control), and then the reactivity of p53 to these antibodies was examined. WT p53 served as a positive control for reactivity with PAb1620, and Mut-p53 served as a negative control. To examine the effect of a tested peptide it was added to a solution containing Mut-p53 and change in reactivity to either Ab was tested. […] Several ELISA experiments using different cell extracts were performed. […]

For YRRLLIGMMWRRRRRRRRRRR [pCAP-68], the “effect on Mut-p53 conformation (conformational change)” value was “significant shift in Mut-p53 conformation towards PAb1620” and the “reactivity of R175H Mut-p53 towards PAb1620 and PAb240 (conformational change)” value (extract of H1299 cells overexpressing R175H p53, peptide 50 ng/ml, 2 hours) was “increased reactivity of R175H Mut-p53 towards PAb1620 and decreased reactivity towards PAb240”.
